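All cell lines were grown in 96-well plates and treated with compound for 48 hours. At the GI50, growth is halved. TGI denotes the concentration required for complete inhibition of growth.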
Assays:
Assay in all cases: NCI anticancer screen, dose series, 48 h
COLO 205 colon = tested on: COLO 205 colon
UACC-62 melanoma = tested on: UACC-62 melanoma
HCC-2998 colon = tested on: HCC-2998 colon
UACC-257 melanoma = tested on: UACC-257 melanoma
NCI-H226 lung = tested on: NCI-H226 lung
SNB-19 CNS = tested on: SNB-19 CNS
KM12 colon = tested on: KM12 colon
DU-145 prostate = tested on: DU-145 prostate
BT-549 breast = tested on: BT-549 breast
SR leukemia = tested on: SR leukemia

Compound | TGI (COLO 205 colon) | TGI (UACC-62 melanoma) | TGI (HCC-2998 colon) | TGI (UACC-257 melanoma) | TGI (NCI-H226 lung) | TGI (SNB-19 CNS) | TGI (KM12 colon) | TGI (DU-145 prostate) | TGI (BT-549 breast) | TGI (SR leukemia) | GI50 (DU-145 prostate) | GI50 (COLO 205 colon) | GI50 (UACC-62 melanoma) | GI50 (BT-549 breast) | GI50 (SR leukemia) | GI50 (UACC-257 melanoma) | GI50 (NCI-H226 lung) | GI50 (SNB-19 CNS) | GI50 (KM12 colon) | GI50 (HCC-2998 colon)
Cc1cc(N(CCC#N)CCC#N)ccc1/C=C(\NC(=O)/C=C/c1ccccc1)C(=O)Nc1ccccc1Cl | > 100 µM | > 100 µM | > 100 µM | > 100 µM | > 100 µM | > 100 µM | > 100 µM |  |  |  |  |  |  |  |  |  |  |  |  | 
COc1cc2c(oc(=O)c3c4occc4cc(OC)c23)c2cccc(O)c12 | > 100 µM | > 100 µM | > 100 µM | > 100 µM | > 100 µM | > 100 µM | > 100 µM |  |  |  |  |  |  |  |  |  |  |  |  | 
Cc1cc(C)c2nc3c(c(C(O)C4CCCCN4)c2c1)CC/C3=C\c1ccc(Cl)cc1 (configuration not stated) | > 100 µM | > 100 µM |  | > 100 µM | > 100 µM | > 100 µM | > 100 µM | > 100 µM | > 100 µM | > 100 µM |  |  |  |  |  |  |  |  |  | 
COC(=O)C1=NC(=S)NC(c2ccccc2)C1c1nc2ccccc2o1 (configuration not stated) | > 50 µM | > 50 µM | > 50 µM | > 50 µM | > 50 µM | > 50 µM | > 50 µM |  |  | > 50 µM |  |  |  |  |  |  |  |  |  | 
CCCN1C(=O)/C(=C/c2ccc(SC(F)(F)F)cc2)SC1=Nc1ccc(OC)cc1 | > 50 µM | 25.4 µM |  | 22.4 µM | > 50 µM | > 50 µM | > 50 µM | > 50 µM | > 50 µM | > 50 µM | 21.8 µM | > 50 µM | 10 µM | 45.1 µM | 37.7 µM | 2.74 µM | 14.8 µM | 17.4 µM | 19.7 µM | 
COC(=O)C(=O)C(C(=O)C(=O)Nc1ccc([N+](=O)[O-])cc1)c1nc2ccccc2[nH]c1=O (configuration not stated) | > 100 µM | > 100 µM |  | > 100 µM | > 100 µM | > 100 µM | > 100 µM |  |  |  |  |  |  |  |  |  |  |  |  | 
COC(=O)c1c(C)nc(C)c2c1C(=O)C(Br)=C(NCc1ccccc1)C2=O | 3.63 µM | 2.93 µM | 10.5 µM | 3.19 µM | 18 µM | 9.23 µM | 13.4 µM | 13 µM | 15.4 µM |  | 4.26 µM | 1.7 µM | 1.41 µM | 4.09 µM |  | 1.62 µM | 4.01 µM | 3.04 µM | 2.93 µM | 3.4 µM
CC1NOC(=O)C1N=Nc1cccc(Cl)c1 (configuration not stated) | 55.7 µM | > 100 µM | > 100 µM | > 100 µM | > 100 µM | > 100 µM | > 100 µM |  |  | 71.5 µM |  |  |  |  |  |  |  |  |  | 
COc1ccc(/C=C/C(=N\NC(=O)c2ccccc2)c2sc(Nc3ccc([N+](=O)[O-])cc3)nc2C)cc1OC | > 100 µM | 6.78 µM | > 100 µM | 28.1 µM | 44.7 µM | 32.5 µM | 47.5 µM |  |  | > 100 µM |  |  |  |  |  |  |  |  |  | 
Cc1c(Cl)ccc2c1NC(=O)C2(O)CC(=O)c1ccc(Cl)cc1 (configuration not stated) | > 64.9 µM | > 71.5 µM | > 56.2 µM | > 55.9 µM | > 100 µM | > 100 µM | > 100 µM |  |  | > 57.1 µM |  |  |  |  |  |  |  |  |  | 
CCOc1ccc(C2=NN(CC)C(=O)C(C3C(=O)N(c4ccccc4)N=C3C)C2)cc1 (configuration not stated) | > 100 µM | > 100 µM | > 100 µM | > 100 µM | > 100 µM | > 100 µM | > 100 µM |  |  |  |  |  |  |  |  |  |  |  |  | 
Cc1cc(NCCCCCCCNc2cc(C)nc3cc(N)ccc23)c2ccc(N)cc2n1 | 29.3 µM | > 100 µM | > 100 µM | > 100 µM | 78.4 µM | > 100 µM | 45.1 µM |  |  | 66.8 µM |  |  |  |  |  |  |  |  |  | 
COC(=O)Cc1cc(=O)n2c3ccccc3n(C)c2c1C#N | > 100 µM |  | > 100 µM | > 100 µM | > 100 µM | > 100 µM | > 100 µM |  |  | > 100 µM |  |  |  |  |  |  |  |  |  | 
C[N+](C)(C)CC1CCC(C[N+](C)(C)C)C1=NO (configuration not stated) | > 100 µM | > 100 µM |  | > 100 µM | > 100 µM | > 100 µM | > 100 µM |  |  | > 100 µM |  |  |  |  |  |  |  |  |  | 
CCCC1C[C@H]2CCCCN2[C@H]2CCCN12 (some centres not stated) | > 83.4 µM | > 100 µM | > 100 µM | > 100 µM | > 100 µM | > 100 µM | > 100 µM |  |  | > 64 µM |  |  |  |  |  |  |  |  |  | 
N=C(N)c1ccc2oc3ccc(C(=N)N)cc3c(=O)c2c1 | > 100 µM | > 100 µM | > 100 µM | > 100 µM | > 100 µM | > 100 µM | > 100 µM | > 100 µM | > 100 µM |  |  |  |  |  |  |  |  |  |  | 
CCc1ccc2c(c1)C(=O)c1c-2n(CCCN)c(=O)c2cc(OC)c(OC)cc12 |  | 3.32 µM | 3.05 µM | 43.6 µM | 42.5 µM | 3.46 µM | 3.15 µM | 3.07 µM | 3.17 µM |  | 1.62 µM |  | 1.8 µM | 1.65 µM |  | 19.5 µM | 21 µM | 1.85 µM | 1.41 µM | 1.63 µM
FC(F)(F)c1ccccc1C1SCc2nc3ccccc3n21 (configuration not stated) | > 100 µM | > 100 µM | > 100 µM | > 100 µM | > 100 µM | > 100 µM | > 100 µM |  |  | > 100 µM |  |  |  |  |  |  |  |  |  | 
CC(C)(O)C1COC2=C1C(=O)c1ccccc1C2=O (configuration not stated) | > 100 µM | 42.9 µM | > 100 µM | > 100 µM | > 100 µM | > 100 µM | > 100 µM | 43.5 µM | 42.9 µM |  |  |  |  |  |  |  |  |  |  | 
COC(=O)c1c(C(=O)OC)c(-c2ccccc2)n(-c2ccccc2)c(=O)c1-c1ccccc1 | > 100 µM | > 100 µM | > 100 µM | > 100 µM | > 100 µM | > 100 µM | > 100 µM |  |  | > 100 µM |  |  |  |  |  |  |  |  |  | 
CCn1cc(C(=O)O)c(=O)c2cc(F)c(N3CCN(S(=O)(=O)c4ccc(Cl)cc4Cl)CC3)cc21 | 5.1 µM | 3.42 µM | 5.17 µM | 7.93 µM | 7.88 µM | 20.6 µM | > 100 µM | 6.75 µM | 7.89 µM |  | 2.81 µM | 2.44 µM | 1.62 µM | 2.64 µM |  | 2.65 µM | 2.6 µM | 3.07 µM | 3.42 µM | 2.29 µM

From PubChem BioAssay (NCI)
